Where a SMILES comes first, the peptide text is derived from it. [ ]: non-standard residue; d: D form. Abu = CC[C@H](N)C(=O)O

Usually IC50 stands for the concentration that gives 50% inhibition. High values mean lower potency, low ones higher potency. The Ki is a measure of affinity in units of concentration, obtained from inhibition or displacement.

One experiment has as its target T1, Interleukin-8 receptors, CXCR1/CXCR2 (Homo sapiens, UniProt P25025+P25024).
T1 sequence (P25025 whole entry): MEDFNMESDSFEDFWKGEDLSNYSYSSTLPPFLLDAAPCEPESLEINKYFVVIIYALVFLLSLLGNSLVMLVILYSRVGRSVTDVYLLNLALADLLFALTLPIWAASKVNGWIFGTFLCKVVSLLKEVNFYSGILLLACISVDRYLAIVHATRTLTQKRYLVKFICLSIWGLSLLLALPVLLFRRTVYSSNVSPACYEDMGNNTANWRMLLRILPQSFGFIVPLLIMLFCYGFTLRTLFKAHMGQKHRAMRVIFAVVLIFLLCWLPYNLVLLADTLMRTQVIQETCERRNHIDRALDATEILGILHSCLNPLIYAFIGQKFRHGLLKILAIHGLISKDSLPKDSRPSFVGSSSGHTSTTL
T1 sequence (P25024 whole entry): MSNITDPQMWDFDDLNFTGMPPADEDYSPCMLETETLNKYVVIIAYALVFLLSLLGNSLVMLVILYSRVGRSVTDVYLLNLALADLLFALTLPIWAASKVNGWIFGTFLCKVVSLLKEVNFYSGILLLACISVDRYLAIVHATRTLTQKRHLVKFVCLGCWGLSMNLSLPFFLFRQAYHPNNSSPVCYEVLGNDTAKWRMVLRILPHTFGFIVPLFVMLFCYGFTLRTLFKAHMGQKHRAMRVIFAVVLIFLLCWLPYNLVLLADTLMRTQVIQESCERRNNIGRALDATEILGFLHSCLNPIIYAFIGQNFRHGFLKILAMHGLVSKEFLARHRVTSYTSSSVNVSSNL
Briefly: Compound was tested for inhibitory activity against Interleukin-8 receptor. The format is protein assay.
As to Ac-MWDFDDLNFTGMPPADEDYSP-NH2, the IC50 was found to be 19 µM.

In a further experiment the target is T1, Interleukin-8 receptors, CXCR1/CXCR2. Briefly: Inhibitory activity against interleukin-8 receptor using [125I]IL8. The format is protein assay.
Compound Ac-MWDFADLNFTGMPPADEDYSP-NH2 displayed a Ki of 32 µM. In turn, Ac-NFTGMPPADEDYSP-NH2 yielded a Ki of 2700 µM. This Ki lies about 84-fold higher than the previous one. In turn, Ac-MWDFDDLNATGMPPADEDYSP-NH2 returned a Ki of 107 µM. This Ki is about 25-fold lower than that of the compound before. Ac-FTGMPPADEDYSP-NH2 showed a Ki of 1850 µM. Regarding `CC[C@H](NC(=O)[C@H](CC(C)C)NC(=O)[C@H](Cc1ccccc1)NC(=O)[C@@H](NC(=O)CNC(=O)[C@H](Cc1ccccc1)NC(=O)[C@@H](NC(=O)[C@H](Cc1c[nH]c2ccccc12)NC(=O)CNC(=O)[C@H](CC(N)=O)NC(=O)[C@@H](NC(C)=O)C(C)C)[C@@H](C)CC)[C@@H](C)O)C(=O)N[C@@H](CCCCN)C(=O)N[C@H](C(N)=O)C(C)C` (Ac-VNGWIFGTFL[Abu]KV-NH2), the Ki was over 30 µM. The compound `CSCC[C@H](NC(C)=O)C(=O)N1CCC[C@H]1C(=O)N1CCC[C@H]1C(=O)N[C@@H](C)C(=O)N[C@@H](CC(=O)O)C(=O)N[C@@H](CCC(=O)O)C(=O)N[C@@H](CC(=O)O)C(=O)N[C@@H](Cc1ccc(O)cc1)C(=O)N[C@@H](CO)C(=O)N1CCC[C@H]1C(N)=O` (stereo in doubt; form 1) had a Ki of 1.7 µM. The same measure, in the same setting: then Ac-MWDFDALNFTGMPPADEDYSP-NH2, with 62 µM; and Ac-MWDFDDANFTGMPPADEDYSP-NH2, with 61 µM. Ac-MWDADDLNFTGMPPADEDYSP-NH2 yielded a Ki of 49 µM. The Ki values of the last two compounds are within 1.5-fold of each other.

For Ac-MWAFDDLNFTGMPPADEDYSP-NH2, the Ki worked out at 28 µM.

In turn, Ac-DDLNFTGMPPADEDYSP-NH2 yielded a Ki of 190 µM. Same read-out and setting: then Ac-MSNITDPQMWDFDDLNFTG-NH2, with over 30 µM; and Ac-MWDFDDLNFTGMPPADEDYAP-NH2, with 15 µM; and `CC[C@H](NC(=O)[C@@H]1CCCN1C(=O)[C@H](CO)NC(=O)[C@H](Cc1ccc(O)cc1)NC(=O)[C@H](CC(=O)O)NC(=O)[C@H](CCC(=O)O)NC(=O)[C@H](CC(=O)O)NC(=O)[C@H](C)NC(=O)[C@@H]1CCCN1C(=O)[C@@H]1CCCN1C(=O)[C@H](CCSC)NC(C)=O)C(=O)N[C@@H](CCSC)C(=O)N[C@@H](CC(C)C)C(=O)N[C@@H](CCC(=O)O)C(=O)N[C@H](C(=O)N[C@@H](CCC(=O)O)C(=O)N[C@H](C(=O)N[C@@H](CC(C)C)C(=O)N[C@@H](CC(N)=O)C(=O)N[C@@H](CCCCN)C(=O)N[C@@H](Cc1ccc(O)cc1)C(N)=O)[C@@H](C)O)[C@@H](C)O` (Ac-MPPADEDYSP[Abu]MLETETLNKY-NH2), with 0.3 µM. Regarding Ac-ADTLMRTQVIQETAERRNNIGRALDATEI-NH2, the Ki is over 1 µM. Same read-out and setting: then `CC[C@H](NC(=O)[C@@H](NC(C)=O)C(C)C)C(=O)N[C@@H](Cc1ccc(O)cc1)C(=O)N[C@@H](CCC(=O)O)C(=O)N[C@H](C(=O)N[C@@H](CC(C)C)C(=O)NCC(=O)N[C@@H](CC(N)=O)C(=O)N[C@@H](CC(=O)O)C(=O)N[C@H](C(=O)N[C@@H](C)C(=O)N[C@@H](CCCCN)C(=O)N[C@@H](Cc1c[nH]c2ccccc12)C(=O)N[C@@H](CCCN=C(N)N)C(=O)N[C@@H](CCSC)C(=O)N[C@H](C(=O)N[C@@H](CC(C)C)C(=O)N[C@@H](CCCN=C(N)N)C(=O)N[C@H](C(N)=O)[C@@H](C)CC)C(C)C)[C@@H](C)O)C(C)C` (Ac-V[Abu]YEVLGNDTAKWRMVLRI-NH2), with over 1 µM; and Ac-TGMPPADEDYSP-NH2, with 2050 µM; and Ac-FDDLNFTGMPPADEDYSP-NH2, with 120 µM. The same measure, in the same setting: for Ac-LNFTGMPPADEDYSP-NH2 the value was 3100 µM; for Ac-MWDFDDLNFTGAPPADEDYSP-NH2, 14 µM. On the same count and under the same terms, for Ac-DLNFTGMPPADEDYSP-NH2 the value was 750 µM. In turn, Ac-MWDFDDLNFTGMPPADEDYSP-NH2 yielded a Ki of 13 µM.

Compound Ac-MWDFDDLNFTGMAPADEDYSP-NH2 registered a Ki of 400 µM. Still for that read-out and setting: for `CSCC[C@H](NC(C)=O)C(=O)N1CCC[C@H]1C(=O)N1CCC[C@H]1C(=O)N[C@@H](C)C(=O)N[C@@H](CC(=O)O)C(=O)N[C@@H](CCC(=O)O)C(=O)N[C@@H](CC(=O)O)C(=O)N[C@@H](Cc1ccc(O)cc1)C(=O)N[C@@H](CO)C(=O)N1CCC[C@H]1C(N)=O` (stereo in doubt; form 2) the value was 1700 µM; for Ac-MWDFDDLNFTGMPPADEDASP-NH2, 265 µM. The same measure, in the same setting: for Ac-MWDFDDLNFTGMPPADEAYSP-NH2 the value was 42 µM. The same measure, in the same setting: then Ac-MWDFDDLNFAGMPPADEDYSP-NH2, with 5 µM; and Ac-MADFDDLNFTGMPPADEDYSP-NH2, with 55 µM. With Ac-MWDFDDLAFTGMPPADEDYSP-NH2, the Ki turned out to be 42 µM. Still for that read-out and setting: then Ac-MWDFDDLNFTGMPPAAEDYSP-NH2, with 55 µM; and Ac-MWDFDDLNFTGMPPADADYSP-NH2, with 29 µM. For Ac-FRQAYHPNNSSP-NH2, the Ki worked out at 10 µM.

Ac-MWDFDDLNFTGMPAADEDYSP-NH2 yielded a Ki of 27 µM. Regarding Ac-GMPPADEDYSP-NH2, the Ki was 890 µM.

In the case of Ac-MWDFDDLNFTGMPPADEDYSA-NH2, the Ki turned out to be 155 µM. For the compound Ac-WDFDDLNFTGMPPADEDYSP-NH2, the Ki worked out at 27 µM.

In turn, Ac-AWDFDDLNFTGMPPADEDYSP-NH2 registered a Ki of 23 µM. As to Ac-DFDDLNFTGMPPADEDYSP-NH2, the Ki came out at 68 µM.
